Holding throughout (format): in vivo
The subject of data set [1] is Mouse. Kind of data set: Anti-tremorine activity (anti-Parkinson activity). The settings on record: for ED50: read-out: Anti-tremorine activity, 50% effective amount (ED50). On the procedure: (§1) Measurement of pharmacological activities are conducted in accordance with the procedures described in the following literatures: […]
For data set [2], the system named is Mouse. The data set is described as follows: Anti-writhing effect (analgetic activity). The note with it: read-out: Anti-writhing effect, 50% effective amount (ED50). As to the method:
(§2) Measurement of pharmacological activities are conducted in accordance with the procedures described in the following literatures:
Proc. Soc. […] Biol, & Med.,

Data set [3] relates to Mouse. The data set is described as follows: Inhibitory effect of spontaneous motor activity. The note with it: read-out: Inhibitory effect of spontaneous motor activity, 50% effective amount (ED50). As to the method: as §2
1) Svensson, T. H. et al

In data set [4] the test system is Mouse. The data set is described as follows: Anti-methanphethamine activity (neuroleptic activity). The settings on record: read-out: Anti-methanphethamine, 50% effective amount (ED50). On the procedure:
as §1

Data set [5] concerns Mouse. Kind of data set: Acute toxicity LD50, oral administration. The note with it: compared with chlorpromazine and fluphenazine.

As for `CN(C)CCCN1c2ccccc2Sc2ccc(Cl)cc21` [Chlorpromazine], the ED50 in data set [1] (Mus musculus, po) amounted to 2.3 mg/kg; in data set [2] (Mus musculus, po), 9.4 mg/kg; in data set [3] (Mus musculus, po) it was 13 mg/kg; in data set [4] (Mus musculus, po), 5.6 mg/kg.
As to `Cl.OC1CCN(CCCN2c3ccccc3Sc3ccc(C(F)(F)F)cc32)C1` (stereo not drawn) [Compound A, 2-trifluoromethyl-10-[3-(3-hydroxy-pyrrolidino)-propyl]-phenothiazine hydrochloride], in data set [1] (concluded from table comparison), the central anticholinergic activity result is listed as “has central anticholinergic activity”. For the same compound, the ED50 in data set [1] (mouse, oral administration) came out at 3.6 mg/kg; in data set [2] (mouse, oral administration), 1 mg/kg; in data set [3] (mouse, oral administration), 3.3 mg/kg; in data set [4] (mouse, oral administration), 0.9 mg/kg. The “acute toxicity (LD50) relative to chlorpromazine and fluphenazine” value in data set [5] was “far less than that of chlorpromazine and fluphenazine”.
With `OCCN1CCN(CCCN2c3ccccc3Sc3ccc(C(F)(F)F)cc32)CC1` [Fluphenazine], the 50% effective dose (ED50) in data set [1] (mouse, oral administration) is 12 mg/kg; in data set [2] (mouse, oral administration), 2.5 to 10 mg/kg; in data set [3] (mouse, oral administration) it was 2.1 mg/kg; in data set [4] (mouse, oral administration), 0.5 mg/kg.
As to `Cl.FC(F)(F)c1ccc2c(c1)N(CCCN1CCCC1)c1ccccc1S2` [Known Compound a, 2-trifluoromethyl-10-(3-pyrrolidino-propyl)-phenothiazine hydrochloride], the ED50 amounted to 4.3 mg/kg in data set [1] (mouse, oral administration); 4.1 mg/kg in data set [2] (mouse, oral administration); 3.8 mg/kg in data set [3] (mouse, oral administration); 1.9 mg/kg in data set [4] (mouse, oral administration).

(Values after US4139632A, “Psychotropic 2-trifluoromethyl-10-[3-(3-hydroxy-pyrrolidino)-propyl]-phenothiazine compounds” (Eisai Co., Ltd., priority 1975, dated 1979).)
